Among the data in patent publication US9096602B2, “Substituted pyrrolo[2,3-B]pyrazines as ATR kinase inhibitors” (Vertex Pharmaceuticals Incorporated, priority 2011, dated 2015) are Ki values, retold here.

SMILES strings stand for the structures.

The target in one experiment is T1, ATR kinase (full-length ATR) (Homo sapiens, UniProt Q13535).
T1 construct: Assays were carried out at 25° C. in the presence of 5 nM full-length ATR
T1 sequence (Q13535 whole entry): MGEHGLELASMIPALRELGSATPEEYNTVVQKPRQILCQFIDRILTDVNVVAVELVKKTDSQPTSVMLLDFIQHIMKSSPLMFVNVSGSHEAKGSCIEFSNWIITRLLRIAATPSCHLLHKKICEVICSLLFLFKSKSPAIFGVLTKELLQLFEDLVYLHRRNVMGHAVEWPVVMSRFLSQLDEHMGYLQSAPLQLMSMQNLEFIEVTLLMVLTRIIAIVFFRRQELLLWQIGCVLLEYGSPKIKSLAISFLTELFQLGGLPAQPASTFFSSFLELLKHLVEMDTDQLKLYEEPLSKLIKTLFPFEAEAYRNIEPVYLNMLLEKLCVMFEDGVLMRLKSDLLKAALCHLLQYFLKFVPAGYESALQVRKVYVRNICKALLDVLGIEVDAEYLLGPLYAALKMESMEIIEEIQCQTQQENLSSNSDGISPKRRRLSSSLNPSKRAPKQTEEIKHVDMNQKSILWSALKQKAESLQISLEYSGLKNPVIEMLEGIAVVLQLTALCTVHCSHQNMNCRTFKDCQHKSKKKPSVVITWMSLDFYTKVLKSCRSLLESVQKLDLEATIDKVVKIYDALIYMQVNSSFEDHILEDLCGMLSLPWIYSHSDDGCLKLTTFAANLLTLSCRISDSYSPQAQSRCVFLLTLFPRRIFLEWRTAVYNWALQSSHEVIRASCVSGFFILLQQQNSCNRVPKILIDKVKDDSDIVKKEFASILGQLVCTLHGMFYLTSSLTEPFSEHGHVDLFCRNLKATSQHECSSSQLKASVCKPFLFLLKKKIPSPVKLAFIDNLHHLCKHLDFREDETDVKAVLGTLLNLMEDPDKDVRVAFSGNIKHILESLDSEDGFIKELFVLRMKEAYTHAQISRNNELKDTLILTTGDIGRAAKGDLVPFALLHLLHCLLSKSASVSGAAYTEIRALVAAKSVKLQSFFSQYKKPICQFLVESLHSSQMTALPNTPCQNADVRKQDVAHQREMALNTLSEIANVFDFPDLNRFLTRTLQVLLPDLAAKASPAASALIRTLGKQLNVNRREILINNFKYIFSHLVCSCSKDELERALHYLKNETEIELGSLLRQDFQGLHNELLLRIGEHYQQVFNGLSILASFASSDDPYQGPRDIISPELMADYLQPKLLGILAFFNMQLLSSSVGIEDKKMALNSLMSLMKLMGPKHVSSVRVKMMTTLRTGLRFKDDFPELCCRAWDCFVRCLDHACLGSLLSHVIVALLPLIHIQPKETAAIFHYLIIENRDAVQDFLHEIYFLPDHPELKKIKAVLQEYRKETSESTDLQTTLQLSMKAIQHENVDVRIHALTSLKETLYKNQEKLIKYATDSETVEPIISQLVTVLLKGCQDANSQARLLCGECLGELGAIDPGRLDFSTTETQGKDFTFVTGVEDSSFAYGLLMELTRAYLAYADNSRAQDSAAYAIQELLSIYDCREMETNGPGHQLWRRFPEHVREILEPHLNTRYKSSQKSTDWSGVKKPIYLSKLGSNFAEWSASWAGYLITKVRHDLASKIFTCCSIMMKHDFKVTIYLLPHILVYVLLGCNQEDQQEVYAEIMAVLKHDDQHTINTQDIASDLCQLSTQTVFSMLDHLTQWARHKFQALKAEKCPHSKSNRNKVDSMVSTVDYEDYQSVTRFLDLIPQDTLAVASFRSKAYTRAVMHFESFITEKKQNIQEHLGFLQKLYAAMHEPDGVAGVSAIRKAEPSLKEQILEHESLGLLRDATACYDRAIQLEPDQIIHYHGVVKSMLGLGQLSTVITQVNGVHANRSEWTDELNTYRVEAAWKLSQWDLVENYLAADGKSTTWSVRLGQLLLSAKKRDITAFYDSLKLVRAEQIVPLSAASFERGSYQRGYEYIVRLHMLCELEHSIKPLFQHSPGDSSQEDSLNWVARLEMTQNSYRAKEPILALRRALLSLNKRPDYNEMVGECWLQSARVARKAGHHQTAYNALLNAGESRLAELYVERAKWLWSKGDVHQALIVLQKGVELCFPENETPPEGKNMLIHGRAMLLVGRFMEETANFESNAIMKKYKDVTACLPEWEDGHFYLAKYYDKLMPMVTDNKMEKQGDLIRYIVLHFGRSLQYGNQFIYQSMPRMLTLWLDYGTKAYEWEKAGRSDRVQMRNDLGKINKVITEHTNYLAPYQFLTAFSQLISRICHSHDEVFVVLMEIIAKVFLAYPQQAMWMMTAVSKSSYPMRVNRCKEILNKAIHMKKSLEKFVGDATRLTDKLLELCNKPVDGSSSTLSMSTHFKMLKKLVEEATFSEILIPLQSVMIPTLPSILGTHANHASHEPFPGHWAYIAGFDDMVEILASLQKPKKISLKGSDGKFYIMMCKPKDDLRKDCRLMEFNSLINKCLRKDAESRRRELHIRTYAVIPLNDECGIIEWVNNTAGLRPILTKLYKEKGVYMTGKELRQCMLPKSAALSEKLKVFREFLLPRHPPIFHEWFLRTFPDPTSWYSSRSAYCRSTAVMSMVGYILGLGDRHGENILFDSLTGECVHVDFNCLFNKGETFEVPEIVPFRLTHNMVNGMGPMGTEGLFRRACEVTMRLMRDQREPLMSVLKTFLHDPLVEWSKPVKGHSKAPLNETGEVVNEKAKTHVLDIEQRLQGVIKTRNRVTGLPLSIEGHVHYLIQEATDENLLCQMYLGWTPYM
Nature of the experiment: ATR Inhibition Assay (radioactive-phosphate incorporation). In kind it is biochemical. The settings on record: Ki(app); 5 nM full-length ATR, 10 μM ATP, 800 μM target peptide, 25° C.; class symbols; read-out: ATR Inhibition Ki. In short, it runs like this:
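Radiometric 33P filter assay with 5 nM full-length ATR in 50 mM Tris/HCl pH 7.5, 10 mM MgCl2, 1 mM DTT at 25 °C. Final 10 μM [γ-33P]ATP and 800 μM peptide; 10 min compound preincubation, ATP start, stopped at 24 h with phosphoric acid/ATP. Ki(app) from non-linear regression of background-corrected initial rates.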
`CC(C)S(=O)(=O)c1ccc(-c2cnc3[nH]cc(C(=O)Nc4cccc(CO)c4)c3n2)cc1` [Compound I-26, N-[3-(hydroxymethyl)phenyl]-2-(4-isopropylsulfonylphenyl)-5H-pyrrolo[2,3-b]pyrazine-7-carboxamide]: the Ki was < 100 nM. Regarding `CC(C)S(=O)(=O)c1ccc(-c2cnc3[nH]cc(C(=O)N[C@H](C(N)=O)c4ccccc4)c3n2)cc1` [Compound I-124, N-[(1S)-2-amino-2-oxo-1-phenyl-ethyl]-2-(4-isopropylsulfonylphenyl)-5H-pyrrolo[2,3-b]pyrazine-7-carboxamide], the Ki was 100 to 500 nM. Still for that read-out and setting: then `CC(C)S(=O)(=O)c1ccc(-c2cnc3[nH]cc(C(=O)Nc4noc5ccccc45)c3n2)cc1` [Compound I-43, N-(1,2-benzoxazol-3-yl)-2-(4-isopropylsulfonylphenyl)-5H-pyrrolo[2,3-b]pyrazine-7-carboxamide], with < 100 nM; and `CC(C)S(=O)(=O)c1ccc(-c2cnc3[nH]cc(C(=O)Nc4ccc(F)cc4)c3n2)cc1` [Compound I-72, N-(4-fluorophenyl)-2-(4-isopropylsulfonylphenyl)-5H-pyrrolo[2,3-b]pyrazine-7-carboxamide], with 100 to 500 nM; and `Cc1ccc([C@@H](CCO)NC(=O)c2c[nH]c3ncc(-c4ccc(S(=O)(=O)C(C)C)cc4)nc23)cc1` [Compound I-81, N-[(1R)-3-hydroxy-1-(p-tolyl)propyl]-2-(4-isopropylsulfonylphenyl)-5H-pyrrolo[2,3-b]pyrazine-7-carboxamide], with < 100 nM.

As for `Cc1cccc(C)c1CNC(=O)c1c[nH]c2ncc(-c3ccc(S(=O)(=O)C(C)C)cc3)nc12` [Compound I-89, N-[(2,6-dimethylphenyl)methyl]-2-(4-isopropylsulfonylphenyl)-5H-pyrrolo[2,3-b]pyrazine-7-carboxamide], the Ki was < 100 nM. The same measure, in the same setting: then `Cc1ccc([C@H](CCO)NC(=O)c2c[nH]c3ncc(-c4ccc(S(=O)(=O)C(C)C)cc4)nc23)cc1` [Compound I-91, N-[(1S)-3-hydroxy-1-(p-tolyl)propyl]-2-(4-isopropylsulfonylphenyl)-5H-pyrrolo[2,3-b]pyrazine-7-carboxamide], with 100 to 500 nM; and `Cc1c(F)cccc1CNC(=O)c1c[nH]c2ncc(-c3ccc(S(=O)(=O)C(C)C)cc3)nc12` [Compound I-85, N-[(3-fluoro-2-methyl-phenyl)methyl]-2-(4-isopropylsulfonylphenyl)-5H-pyrrolo[2,3-b]pyrazine-7-carboxamide], with < 100 nM; and `CC(C)S(=O)(=O)c1ccc(-c2cnc3[nH]cc(C(=O)NCc4ccc(N5CCOCC5)cc4)c3n2)cc1` [Compound I-38, 2-(4-isopropylsulfonylphenyl)-N-[(4-morpholinophenyl)methyl]-5H-pyrrolo[2,3-b]pyrazine-7-carboxamide], with 500 to 5000 nM. Still for that read-out and setting: under `CC(C)S(=O)(=O)c1ccc(-c2cnc3[nH]cc(C(=O)NC(CCO)c4ccc(F)cc4)c3n2)cc1` (stereo not shown) [Compound I-78, N-[1-(4-fluorophenyl)-3-hydroxy-propyl]-2-(4-isopropylsulfonylphenyl)-5H-pyrrolo[2,3-b]pyrazine-7-carboxamide] stands 100 to 500 nM. On the same count and under the same terms, then `CCN(C(=O)c1c[nH]c2ncc(-c3ccc(S(=O)(=O)C(C)C)cc3)nc12)c1ccccc1` [Compound I-9, N-ethyl-2-(4-isopropylsulfonylphenyl)-N-phenyl-5H-pyrrolo[2,3-b]pyrazine-7-carboxamide], with 500 to 5000 nM.

Turning to `CC(C)S(=O)(=O)c1ccc(-c2cnc3[nH]cc(C(=O)Nc4cccc(F)c4)c3n2)cc1` [Compound I-73, N-(3-fluorophenyl)-2-(4-isopropylsulfonylphenyl)-5H-pyrrolo[2,3-b]pyrazine-7-carboxamide], the Ki is < 100 nM. The same measure, in the same setting: under `CC(C)S(=O)(=O)c1ccc(-c2cnc3[nH]cc(C(=O)NCc4cccc(Cl)c4F)c3n2)cc1` [Compound I-92, N-[(3-chloro-2-fluoro-phenyl)methyl]-2-(4-isopropylsulfonylphenyl)-5H-pyrrolo[2,3-b]pyrazine-7-carboxamide] stands < 100 nM; under `Cc1cccc([C@@H](CCO)NC(=O)c2c[nH]c3ncc(-c4ccc(S(=O)(=O)C(C)C)cc4)nc23)c1` [Compound I-102, N-[(1R)-3-hydroxy-1-(m-tolyl)propyl]-2-(4-isopropylsulfonylphenyl)-5H-pyrrolo[2,3-b]pyrazine-7-carboxamide], 100 to 500 nM; under `CC(C)S(=O)(=O)c1ccc(-c2cnc3[nH]cc(C(=O)Nc4cccc(C#N)c4)c3n2)cc1` [Compound I-13, N-(3-cyanophenyl)-2-(4-isopropylsulfonylphenyl)-5H-pyrrolo[2,3-b]pyrazine-7-carboxamide], 100 to 500 nM.

For `CC(C)S(=O)(=O)c1ccc(-c2cnc3[nH]cc(C(=O)NCc4cccnc4)c3n2)cc1` [Compound I-59, 2-(4-isopropylsulfonylphenyl)-N-(3-pyridylmethyl)-5H-pyrrolo[2,3-b]pyrazine-7-carboxamide], the Ki lay in the range of 100 to 500 nM. Same read-out and setting: under `CC(C)S(=O)(=O)c1ccc(-c2cnc3[nH]cc(C(=O)NC[C@H](O)c4ccccc4)c3n2)cc1` [Compound I-37, N-[(2R)-2-hydroxy-2-phenyl-ethyl]-2-(4-isopropylsulfonylphenyl)-5H-pyrrolo[2,3-b]pyrazine-7-carboxamide] stands < 100 nM; under `CC(C)S(=O)(=O)c1ccc(-c2cnc3[nH]cc(C(=O)N[C@@H](C)c4ccc(F)cc4)c3n2)cc1` [Compound I-74, N-[(1S)-1-(4-fluorophenyl)ethyl]-2-(4-isopropylsulfonylphenyl)-5H-pyrrolo[2,3-b]pyrazine-7-carboxamide], 500 to 5000 nM.

As to `Cc1ccc(F)cc1CNC(=O)c1c[nH]c2ncc(-c3ccc(S(=O)(=O)C(C)C)cc3)nc12` [Compound I-87, N-[(5-fluoro-2-methyl-phenyl)methyl]-2-(4-isopropylsulfonylphenyl)-5H-pyrrolo[2,3-b]pyrazine-7-carboxamide], the Ki is < 100 nM.

For `COC[C@H](C)NC(=O)c1c[nH]c2ncc(-c3ccc(S(=O)(=O)C(C)C)cc3)nc12` [Compound I-110, 2-(4-isopropylsulfonylphenyl)-N-[(1S)-2-methoxy-1-methyl-ethyl]-5H-pyrrolo[2,3-b]pyrazine-7-carboxamide], the Ki was 100 to 500 nM. On the same count and under the same terms, then `CC(C)S(=O)(=O)c1ccc(-c2cnc3[nH]cc(C(=O)NCC4(C)COC4)c3n2)cc1` [Compound I-105, 2-(4-isopropylsulfonylphenyl)-N-[(3-methyloxetan-3-yl)methyl]-5H-pyrrolo[2,3-b]pyrazine-7-carboxamide], with 500 to 5000 nM; and `CC(C)S(=O)(=O)c1ccc(-c2cnc3[nH]cc(C(=O)N[C@H](C)c4ccccc4)c3n2)cc1` [Compound I-45, 2-(4-isopropylsulfonylphenyl)-N-[(1R)-1-phenylethyl]-5H-pyrrolo[2,3-b]pyrazine-7-carboxamide], with < 100 nM.

The experiment is the same for the next values; noted with them: Ki(app); 5 nM full-length ATR, 10 μM ATP, 800 μM target peptide, 25° C.; given as numeric lower bound without unit; read-out: ATR Inhibition Ki.
`CC(C)S(=O)(=O)c1ccc(-c2cnc3[nH]cc(C(=O)N4CCC(CO)CC4)c3n2)cc1` [Compound I-32, [4-(hydroxymethyl)-1-piperidyl]-[2-(4-isopropylsulfonylphenyl)-5H-pyrrolo[2,3-b]pyrazin-7-yl]methanone]: the Ki is > 4000 nM.

With `CC(C)S(=O)(=O)c1ccc(-c2cnc3[nH]cc(C(=O)NCc4cccc(Cl)c4)c3n2)cc1` [Compound I-46, N-[(3-chlorophenyl)methyl]-2-(4-isopropylsulfonylphenyl)-5H-pyrrolo[2,3-b]pyrazine-7-carboxamide], the Ki was > 250 nM. On the same count and under the same terms, then `CC(C)S(=O)(=O)c1ccc(-c2cnc3[nH]cc(C(=O)N4CCOCC4)c3n2)cc1` [Compound I-120, [2-(4-isopropylsulfonylphenyl)-5H-pyrrolo[2,3-b]pyrazin-7-yl]-morpholino-methanone], with > 2500 nM. In the case of `CC(C)S(=O)(=O)c1ccc(-c2cnc3[nH]cc(C(=O)Nc4ccc(C(N)=O)cc4)c3n2)cc1` [Compound I-47, N-(4-carbamoylphenyl)-2-(4-isopropylsulfonylphenyl)-5H-pyrrolo[2,3-b]pyrazine-7-carboxamide], the Ki is > 250 nM. On the same count and under the same terms, under `CC(C)S(=O)(=O)c1ccc(-c2cnc3[nH]cc(C(=O)NCC4CCCCC4)c3n2)cc1` [Compound I-31, N-(cyclohexylmethyl)-2-(4-isopropylsulfonylphenyl)-5H-pyrrolo[2,3-b]pyrazine-7-carboxamide] stands > 500 nM. `CC(C)S(=O)(=O)c1ccc(-c2cnc3[nH]cc(C(=O)NCC4(N)CCCCC4)c3n2)cc1` [Compound I-90, N-[(1-aminocyclohexyl)methyl]-2-(4-isopropylsulfonylphenyl)-5H-pyrrolo[2,3-b]pyrazine-7-carboxamide]: the Ki is > 250 nM. Same read-out and setting: then `CC(C)S(=O)(=O)c1ccc(-c2cnc3[nH]cc(C(=O)N4CCCC(O)C4)c3n2)cc1` (stereo not shown) [Compound I-23, (3-hydroxy-1-piperidyl)-[2-(4-isopropylsulfonylphenyl)-5H-pyrrolo[2,3-b]pyrazin-7-yl]methanone], with > 4000 nM. The same measure, in the same setting: under `CC(C)S(=O)(=O)c1ccc(-c2cnc3[nH]cc(C(=O)N4CCC(N(C)C)CC4)c3n2)cc1` [Compound I-99, [4-(dimethylamino)-1-piperidyl]-[2-(4-isopropylsulfonylphenyl)-5H-pyrrolo[2,3-b]pyrazin-7-yl]methanone] stands > 4000 nM; under `CC(C)S(=O)(=O)c1ccc(-c2cnc3[nH]cc(C(=O)N(CC(N)=O)C4CCCC4)c3n2)cc1` [Compound I-131, N-(2-amino-2-oxo-ethyl)-N-cyclopentyl-2-(4-isopropylsulfonylphenyl)-5H-pyrrolo[2,3-b]pyrazine-7-carboxamide], > 40 nM.
